# PMC2806602 (The Journal of neuroscience : the official journal of the …, 2009)
# Substitutions are numbered along the chain they refer to.
# Experiments:
# GluRδ2^Lc E531A+D782A = target: T1, GluRδ2^Lc E531A+D782A (Rattus norvegicus, UniProt Q63226, A654T/D782A/E531A); experiment: Two-electrode voltage-clamp recordings in Xenopus oocytes, GluRδ2^Lc E531A+D782A; assay type: cell-based
# T1 sequence (Q63226 24-1007 E531A/A654T/D782A): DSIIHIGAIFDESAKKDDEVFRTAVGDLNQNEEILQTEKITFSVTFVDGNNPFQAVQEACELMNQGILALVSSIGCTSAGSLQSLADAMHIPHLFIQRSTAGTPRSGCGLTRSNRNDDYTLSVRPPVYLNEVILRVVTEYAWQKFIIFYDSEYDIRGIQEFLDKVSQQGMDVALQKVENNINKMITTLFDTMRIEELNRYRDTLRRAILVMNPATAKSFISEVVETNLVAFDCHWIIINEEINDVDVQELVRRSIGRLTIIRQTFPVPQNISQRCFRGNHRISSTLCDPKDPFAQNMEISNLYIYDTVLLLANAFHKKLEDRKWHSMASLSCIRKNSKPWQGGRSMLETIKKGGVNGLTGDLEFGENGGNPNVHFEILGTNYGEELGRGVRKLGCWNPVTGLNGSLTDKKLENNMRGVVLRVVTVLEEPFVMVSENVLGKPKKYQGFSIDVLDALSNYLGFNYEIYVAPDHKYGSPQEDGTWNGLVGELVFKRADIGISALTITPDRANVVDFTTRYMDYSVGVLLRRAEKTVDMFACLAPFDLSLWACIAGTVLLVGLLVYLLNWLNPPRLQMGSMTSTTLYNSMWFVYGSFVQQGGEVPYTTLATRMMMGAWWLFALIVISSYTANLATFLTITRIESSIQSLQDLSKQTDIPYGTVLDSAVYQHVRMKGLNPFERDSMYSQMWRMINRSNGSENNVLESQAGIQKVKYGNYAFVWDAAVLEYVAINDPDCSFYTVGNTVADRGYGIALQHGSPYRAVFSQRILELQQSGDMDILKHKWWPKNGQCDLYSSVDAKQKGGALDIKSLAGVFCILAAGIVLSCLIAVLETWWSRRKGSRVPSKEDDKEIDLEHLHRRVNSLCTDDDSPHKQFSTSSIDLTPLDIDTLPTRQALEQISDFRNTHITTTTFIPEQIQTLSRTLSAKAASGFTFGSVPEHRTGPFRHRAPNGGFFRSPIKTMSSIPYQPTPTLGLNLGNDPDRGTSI
# GluRδ2^Lc D535A+D782A = target: T2, GluRδ2^Lc D535A+D782A (Rattus norvegicus, UniProt Q63226, A654T/D535A/D782A); experiment: Two-electrode voltage-clamp recordings in Xenopus oocytes, GluRδ2^Lc D535A+D782A; assay type: cell-based
# T2 sequence (Q63226 24-1007 D535A/A654T/D782A): T1 sequence (Q63226 24-1007 E531A/A654T/D782A) with A508E, D512A
Structure (SMILES),"Ca^2+ potentiation (relative to baseline) (GluRδ2^Lc E531A+D782A; 3 mM Ca^2+, ± SEM)","Ca^2+ potentiation (relative to baseline) (GluRδ2^Lc D535A+D782A; 3 mM Ca^2+, ± SEM)","D-serine + 0 mM Ca^2+ nH (GluRδ2^Lc E531A+D782A; Hill slope, 0 mM Ca^2+)","D-serine + 3 mM Ca^2+ nH (GluRδ2^Lc E531A+D782A; Hill slope, 3 mM Ca^2+)","D-serine + 0 mM Ca^2+ nH (GluRδ2^Lc D535A+D782A; Hill slope, 0 mM Ca^2+)","D-serine + 3 mM Ca^2+ nH (GluRδ2^Lc D535A+D782A; Hill slope, 3 mM Ca^2+)"
"[Ca+2] [Ca^2+, calcium]",0.9 ± 0.04 fold,0.6 ± 0.01 fold,,,,
N[C@H](CO)C(=O)O [D-serine],,,2.3,2.4,1.0,1.1
